Experiments:
Experiment in all cases: relative viability (nuclei count vs DMSO), 5 days (fraction); higher = more cells survive
[1] = compound: C[C@@H](N)c1ccc(C(=O)Nc2ccnc3[nH]ccc23)cc1 + NC(=O)Nc1cc(-c2cccc(F)c2)sc1C(=O)N[C@H]1CCCNC1 [AZD7762] (partner 0.2 µM)
How it was run: (§1)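 Lung cancer cell lines were pin-tool dosed in 1536-well plates on the day after seeding, with either a lone drug or a fixed anchor-drug dose plus five library-drug doses (not always all listed) in √10 steps. Nuclei were counted on 4× images after 5 days. Relative viability is the ratio of treated-well to vehicle-well nuclei counts, with each value a median of duplicate plates.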

[2] = compound: C[C@@H](N)c1ccc(C(=O)Nc2ccnc3[nH]ccc23)cc1 + Cc1nc(Nc2ncc(C(=O)Nc3c(C)cccc3Cl)s2)cc(N2CCN(CCO)CC2)n1 [Dasatinib] (partner 0.075 µM)
How it was run: as §1

[3] = compound: C1CNCCC1C2=CC(=NN2)C3=CC=NC=C3 + O=C(c1cc(Cc2n[nH]c(=O)c3ccccc23)ccc1F)N1CCN(C(=O)C2CC2)CC1 [Olaparib] (partner 8 µM)
How it was run: as §1

[4] = compound: C[C@@H](N)c1ccc(C(=O)Nc2ccnc3[nH]ccc23)cc1 + CS(=O)(=O)N1CCN(Cc2cc3nc(-c4cccc5[nH]ncc45)nc(N4CCOCC4)c3s2)CC1 [Pictilisib] (partner 1 µM)
How it was run: as §1

| Cell Line | relative viability ([1]; first compound 0.04 µM) | relative viability ([1]; first compound 0.1265 µM) | relative viability ([1]; first compound 0.4 µM) | relative viability ([1]; first compound 1.265 µM) | relative viability ([1]; first compound 4 µM) | relative viability ([2]; first compound 0.04 µM) | relative viability ([2]; first compound 0.1265 µM) | relative viability ([2]; first compound 0.4 µM) | relative viability ([2]; first compound 1.265 µM) | relative viability ([2]; first compound 4 µM) | relative viability ([3]; first compound 0.08 µM) | relative viability ([3]; first compound 0.8 µM) | relative viability ([3]; first compound 2.53 µM) | relative viability ([3]; first compound 8 µM) | relative viability ([4]; first compound 0.04 µM) | relative viability ([4]; first compound 0.1265 µM) | relative viability ([4]; first compound 0.4 µM) | relative viability ([4]; first compound 4 µM) | relative viability ([4]; first compound 1.265 µM) |
| --- | --- | --- | --- | --- | --- | --- | --- | --- | --- | --- | --- | --- | --- | --- | --- | --- | --- | --- | --- |
| NCI-H1734 | 0.461 | 0.526 | 0.575 | 0.414 | 0.57 | 0.347 | 0.445 | 0.38 | 0.284 | 0.351 | 0.581 | 0.639 | 0.598 | 0.635 | 0.475 | 0.474 | 0.461 | 0.353 |  |
| NCI-H1755 | 0.408 | 0.46 | 0.451 | 0.362 | 0.397 | 0.292 | 0.449 | 0.457 | 0.316 | 0.223 | 0.974 | 0.922 | 0.857 | 0.852 | 0.418 | 0.487 | 0.517 | 0.364 | 0.382 |
| NCI-H1792 | 0.564 | 0.534 | 0.69 | 0.72 | 0.578 | 0.831 | 0.875 | 0.826 | 0.672 | 0.534 | 0.504 | 0.385 | 0.471 | 0.353 | 0.368 | 0.273 | 0.38 | 0.288 | 0.349 |
| NCI-H1793 | 0.409 | 0.62 | 0.442 |  | 0.73 | 0.308 | 0.419 | 0.418 |  | 0.298 | 0.748 |  | 0.902 | 0.953 | 0.251 | 0.437 | 0.327 | 0.402 |  |
| NCI-H1915 |  | 0.785 | 0.697 |  | 0.691 | 0.315 | 0.262 | 0.276 |  | 0.308 | 0.265 | 0.272 | 0.269 | 0.25 | 1.15 | 0.92 | 0.925 | 0.837 |  |
| NCI-H1944 | 0.479 | 0.542 | 0.611 | 0.798 | 0.606 | 0.183 | 0.192 | 0.182 | 0.183 | 0.159 | 0.403 | 0.384 | 0.389 | 0.384 | 0.398 | 0.339 | 0.337 | 0.345 |  |
| NCI-H1975 | 0.593 | 0.613 | 0.688 | 0.513 | 0.434 | 0.408 | 0.459 | 0.363 | 0.369 | 0.262 | 0.87 | 0.894 | 0.936 | 0.778 | 0.281 | 0.281 | 0.287 | 0.236 | 0.228 |
| NCI-H1993 | 0.867 | 0.817 |  | 1.04 | 1.26 | 0.745 | 0.754 | 0.856 | 0.917 | 0.8 | 0.937 | 0.918 | 1.02 | 1.21 | 0.801 | 0.865 |  | 0.833 | 0.812 |
| NCI-H2085 | 0.947 | 0.914 | 0.96 | 1.13 | 1.09 | 0.294 | 0.322 | 0.421 | 0.33 | 0.391 | 0.903 |  | 0.807 | 0.746 | 0.6 | 0.63 | 0.581 | 0.606 | 0.704 |

From the supplement of paper PMC10307832
